Assay results as given in publication PMC12366332 (Applied and Environmental Microbiology, 2025).
Like-named read-outs stand apart in the source and are kept apart here. Ends that are not written are not given here. Peptide text beside a SMILES is read from it. * marks the point of attachment. Hexanoyl = CCCCCC(=O)*

Columns and labels:
[1] = system: X. fastidiosa subsp. fastidiosa IVIA 5387.2; conditions: for EC50: 3 h
horse erythrocytes = conditions: red cells of horse, 50 µM
tobacco leaves = conditions: 150 µM; after 48 h
E. coli 0111:B4 LPS = type: biochemical, Escherichia coli

Row | Compound | Bactericidal activity Reduction in viability (Log N0/N) ([1]; 50 µM) | Hemolytic activity (%) (horse erythrocytes) | Phytotoxicity: diameter of the lesion (tobacco leaves) [mm] | Bactericidal activity Level ([1]; 50 µM) | LPS neutralization Ratio (treatment/NTC) (E. coli 0111:B4 LPS) | also measured
1 | CCCCCC(=O)NCCCC[C@H](NC(=O)[C@@H](NC(=O)[C@H](CCCCN)NC(=O)[C@H](CCCCN)NC(=O)[C@H](Cc1ccccc1)NC(=O)[C@H](CC(C)C)NC(=O)[C@H](CCCCN)NC(=O)[C@H](CCCCN)NC(C)=O)[C@@H](C)CC)C(=O)N[C@@H](CCCCN)C(=O)N[C@@H](Cc1ccc(O)cc1)C(=O)N[C@@H](CC(C)C)C(N)=O [BP375, Ac-KKLFKKIK(COC5H11)KYL-NH2] (Ac-KKLFKKIK(Hexanoyl)KYL-NH2) | 1,37 Log N0/N | 23 | 10 | – | – | –
2 | CCCCCC(=O)NCCCC[C@H](NC(=O)[C@H](CCCCN)NC(=O)[C@H](CC(C)C)NC(=O)[C@@H](NC(=O)[C@H](CCCCN)NC(=O)[C@H](CCCCN)NC(=O)[C@H](Cc1ccccc1)NC(=O)[C@H](CC(C)C)NC(=O)[C@H](CCCCN)NC(=O)[C@H](CCCCN)NC(C)=O)[C@@H](C)CC)C(=O)N[C@@H](CC(C)C)C(N)=O [BP377, Ac-KKLFKKILKK(COC5H11)L-NH2] (Ac-KKLFKKILKK(Hexanoyl)L-NH2) | – | 71 | 11 | Very High (key: Very High: very high bactericidal activity (>2.5 log); High: high bactericidal activity (between 2.0 and 2.5 log); Moderate: a moderate activity (between 1.5 and 2.0 log); Low: low active (<1.5 log)) | – | Bactericidal activity Reduction in viability (Log N0/N) ([1]; 3.1 µM): 1,34 Log N0/N; Bactericidal activity Reduction in viability (Log N0/N) ([1]; 12.5 µM): 1,88 Log N0/N; EC50 [1]: 3.67 µM
3 | CCCC(=O)NCCCC[C@H](NC(=O)[C@@H](NC(=O)[C@H](CCCCN)NC(=O)[C@H](CCCCN)NC(=O)[C@H](Cc1ccccc1)NC(=O)[C@H](CC(C)C)NC(=O)[C@H](CCCCN)NC(=O)[C@H](CCCCN)NC(C)=O)[C@@H](C)CC)C(=O)N[C@@H](CCCCN)C(=O)N[C@@H](Cc1ccc(O)cc1)C(=O)N[C@@H](CC(C)C)C(N)=O [BP387, Ac‐KKLFKKIK(COC3H7)KYL‐NH2] | 1,96 Log N0/N | 4 | 8 | Moderate (key: Very High: very high bactericidal activity (>2.5 log); High: high bactericidal activity (between 2.0 and 2.5 log); Moderate: a moderate activity (between 1.5 and 2.0 log); Low: low active (<1.5 log)) | – | Bactericidal activity Reduction in viability (Log N0/N) ([1]; 12.5 µM): 0,83 Log N0/N
4 | CCCC(=O)NCCCC[C@H](NC(=O)[C@H](CCCCN)NC(=O)[C@H](CC(C)C)NC(=O)[C@@H](NC(=O)[C@H](CCCCN)NC(=O)[C@H](CCCCN)NC(=O)[C@H](Cc1ccccc1)NC(=O)[C@H](CC(C)C)NC(=O)[C@H](CCCCN)NC(=O)[C@H](CCCCN)NC(C)=O)[C@@H](C)CC)C(=O)N[C@@H](CC(C)C)C(N)=O [BP389, Ac-KKLFKKILKK(COC3H7)L-NH2] | – | 9 | 7 | High (key: Very High: very high bactericidal activity (>2.5 log); High: high bactericidal activity (between 2.0 and 2.5 log); Moderate: a moderate activity (between 1.5 and 2.0 log); Low: low active (<1.5 log)) | – | Bactericidal activity Reduction in viability (Log N0/N) ([1]; 3.1 µM): 0,02 Log N0/N; Bactericidal activity Reduction in viability (Log N0/N) ([1]; 12.5 µM): 1,51 Log N0/N
5 | CCCCCCCCCCCC(=O)NCCCC[C@H](NC(=O)[C@H](CCCCN)NC(C)=O)C(=O)N[C@@H](CC(C)C)C(=O)N[C@@H](Cc1ccccc1)C(=O)N[C@@H](CCCCN)C(=O)N[C@@H](CCCCN)C(=O)N[C@H](C(=O)N[C@@H](CC(C)C)C(=O)N[C@@H](CCCCN)C(=O)N[C@@H](Cc1ccc(O)cc1)C(=O)N[C@@H](CC(C)C)C(N)=O)[C@@H](C)CC [BP393, Ac-KK(COC11H23)LFKKILKYL-NH2] | – | – | 6 | High (key: Very High: very high bactericidal activity (>2.5 log); High: high bactericidal activity (between 2.0 and 2.5 log); Moderate: a moderate activity (between 1.5 and 2.0 log); Low: low active (<1.5 log)) | – | EC50 [1]: 20.1 µM
6 | CCCC(=O)NCCCC[C@H](NC(=O)[C@H](CCCCN)NC(=O)[C@@H](Cc1ccccc1)NC(=O)[C@H](CC(C)C)NC(=O)[C@H](CCCCN)NC(=O)[C@H](CCCCN)NC(C)=O)C(=O)N[C@H](C(=O)N[C@@H](CC(C)C)C(=O)N[C@@H](CCCCN)C(=O)N[C@@H](Cc1ccc(O)cc1)C(=O)N[C@@H](CC(C)C)C(N)=O)[C@@H](C)CC [BP473, Ac-KKLfKK(COC3H7)ILKYL-NH2] | – | 7 | 4 | Very High (key: Very High: very high bactericidal activity (>2.5 log); High: high bactericidal activity (between 2.0 and 2.5 log); Moderate: a moderate activity (between 1.5 and 2.0 log); Low: low active (<1.5 log)) | – | Bactericidal activity Reduction in viability (Log N0/N) ([1]; 3.1 µM): 0,64 Log N0/N; EC50 [1]: 4.75 µM
7 | CCCC(=O)NCCCC[C@H](NC(=O)[C@@H](NC(=O)[C@H](CCCCN)NC(=O)[C@H](CCCCN)NC(=O)[C@@H](Cc1ccccc1)NC(=O)[C@H](CC(C)C)NC(=O)[C@H](CCCCN)NC(=O)[C@H](CCCCN)NC(C)=O)[C@@H](C)CC)C(=O)N[C@@H](CCCCN)C(=O)N[C@@H](Cc1ccc(O)cc1)C(=O)N[C@@H](CC(C)C)C(N)=O [BP474, Ac-KKLfKKIK(COC3H7)KYL-NH2] | 1,76 Log N0/N | 0 | 2 | Moderate (key: Very High: very high bactericidal activity (>2.5 log); High: high bactericidal activity (between 2.0 and 2.5 log); Moderate: a moderate activity (between 1.5 and 2.0 log); Low: low active (<1.5 log)) | – | –
8 | CCCC(=O)NCCCC[C@H](NC(=O)[C@H](CCCCN)NC(=O)[C@H](CC(C)C)NC(=O)[C@@H](NC(=O)[C@H](CCCCN)NC(=O)[C@H](CCCCN)NC(=O)[C@@H](Cc1ccccc1)NC(=O)[C@H](CC(C)C)NC(=O)[C@H](CCCCN)NC(=O)[C@H](CCCCN)NC(C)=O)[C@@H](C)CC)C(=O)N[C@@H](CC(C)C)C(N)=O [BP475, Ac-KKLfKKILKK(COC3H7)L-NH2] | – | 0 | 4 | High (key: Very High: very high bactericidal activity (>2.5 log); High: high bactericidal activity (between 2.0 and 2.5 log); Moderate: a moderate activity (between 1.5 and 2.0 log); Low: low active (<1.5 log)) | – | Bactericidal activity Reduction in viability (Log N0/N) ([1]; 12.5 µM): 1,04 Log N0/N
9 | CC[C@H](C)[C@H](NC(=O)CN)C(=O)NCC(=O)N[C@@H](C)C(=O)N[C@H](C(=O)N[C@@H](CC(C)C)C(=O)N[C@@H](CCCCN)C(=O)N[C@H](C(=O)N[C@@H](CC(C)C)C(=O)N[C@H](C(=O)N[C@H](C(=O)NCC(=O)N[C@@H](CC(C)C)C(=O)N1CCC[C@H]1C(=O)N[C@@H](C)C(=O)N[C@@H](CC(C)C)C(=O)N[C@H](C(=O)N[C@@H](CO)C(=O)N[C@@H](Cc1c[nH]c2ccccc12)C(=O)N[C@H](C(=O)N[C@@H](CCCCN)C(=O)N[C@@H](CCCNC(=N)N)C(=O)N[C@@H](CCCCN)C(=O)N[C@@H](CCCNC(=N)N)C(=O)N[C@@H](CCC(N)=O)C(=O)N[C@@H](CCC(N)=O)C(N)=O)[C@@H](C)CC)[C@@H](C)CC)[C@@H](C)O)[C@@H](C)O)C(C)C)C(C)C [Melittin, reference compound] | – | – | 10 | – | – | –
10 | Ac-LKLFKKILKVL-NH2 [BP022] | 1,87 Log N0/N | – | – | Moderate (key: Very High: very high bactericidal activity (>2.5 log); High: high bactericidal activity (between 2.0 and 2.5 log); Moderate: a moderate activity (between 1.5 and 2.0 log); Low: low active (<1.5 log)) | 0,61 | –
11 | CF-KKLfKK(COC3H7)ILKYL-NH2 [BP473-CF] | – | – | – | – | – | Bactericidal activity Reduction in viability (Log N0/N) [1]: 0,91 Log N0/N
12 | FKLFKKILKVL-NH2 [BP013] | 1,03 Log N0/N | – | – | – | 1,13 | –
13 | KKLFKKILKFL-NH2 [BP076] | 0,91 Log N0/N | – | – | – | 0,36 | –
14 | KKLFKKILKKL-NH2 [BP016] | 0,00 Log N0/N | – | – | – | 1,13 | –
15 | KKLFKKILKVL-NH2 [BP015] | 1,13 Log N0/N | – | – | – | 1,10 | –
16 | KKLFKKILKYL-NH2 [BP100] | 1,92 Log N0/N | – | – | Moderate (key: Very High: very high bactericidal activity (>2.5 log); High: high bactericidal activity (between 2.0 and 2.5 log); Moderate: a moderate activity (between 1.5 and 2.0 log); Low: low active (<1.5 log)) | 0,34 | –
17 | KKLFKkILKYL-NH2 [BP146] | 1,25 Log N0/N | – | – | – | 0,73 | –
18 | KKLfKKILKYL-NH2 [BP143] | 0,89 Log N0/N | – | – | – | 0,70 | –
19 | KKVVFWVKFk-NH2 [BP442] | 1,09 Log N0/N | – | – | Low (key: Very High: very high bactericidal activity (>2.5 log); High: high bactericidal activity (between 2.0 and 2.5 log); Moderate: a moderate activity (between 1.5 and 2.0 log); Low: low active (<1.5 log)) | 0,76 | –
20 | KKlFKKILKYL-NH2 [BP144] | 0,68 Log N0/N | – | – | – | 1,07 | –
21 | KkLFKKILKYL-NH2 [BP145] | 1,08 Log N0/N | – | – | – | 0,76 | –
22 | RKVRGPP-NH2 [Lf(28-34), RKVRGPP-NH2, reference compound] | – | 1 | 0 | – | – | –
23 | c(LLKKKWKKLQ) (cyclic) [BPC098W] | 0,78 Log N0/N | – | – | Low (key: Very High: very high bactericidal activity (>2.5 log); High: high bactericidal activity (between 2.0 and 2.5 log); Moderate: a moderate activity (between 1.5 and 2.0 log); Low: low active (<1.5 log)) | 0,83 | –
